One series concerns the target T1, CMP-NeuNAc synthetase (Escherichia coli O18:K1:H7, UniProt P13266).
T1 construct: host or cells: E. coli K1
Conditions: enzyme purified from E. coli K1; read-out: apparent Km; cited from earlier work.

A further series concerns the target spHAS (Streptococcus pyogenes, UniProt P0C0H0). Conditions: cited from earlier work.
The test system of a further series is Sucrose synthase II. Conditions: cited from earlier work.
For series [1] the following is noted: more active than morphine; cited from earlier work.
Series [2] concerns UDP-GalNAc pyrophosphorylase. Conditions: substrate of UDP-GalNAc pyrophosphorylase; cited from earlier work.
The next series has as its target GalU (Escherichia coli, UniProt P0AEP3). Kind of series: Enzymatic activity assay for GalU (two-step, UDP-glucose dehydrogenase coupled). In kind it is biochemical, E. coli. On the procedure: A two-step assay was carried out to detect the GalU activity. In the first step, GalU catalyzed reactions were performed at room temperature (24° C.) for 15 min in a final volume of 250 μl containing 1.6 mM Glc-1-P, 2.8 mM UTP, 10 mM MgCl2 and 100 μl enzyme solution. A blank was performed with water replacing Glc-1-P. The reaction was stopped by adding cold NaCl solution (0.5 ml, 0.15 M) and immediately transferring the tube to a boiling water bath for 5 min to terminate the reaction. The contents of the tubes were cooled to room temperature and vortexed vigorously to break up the coagulum. After centrifuge at 1400×g for 15 min, the clear supernatant (0.2 ml) was subjected to the UDP-glucose assay in a cuvette with a total volume of 1 ml containing 0.03 M Tris-acetate buffer, pH 8.7, 1.36 mM NAD, 0.2 ml sample (supernatant from the previous procedure) and 3.2 mU UDP-glucose dehydrogenase. The OD change at 340 nm was monitored by a UV spectrophotometer (HP 8453 Spectrophotometer, Hewlett-Packard Corn.).

The next series concerns GalT. Kind of series: Enzymatic activity assay for GalT (two-step, UDP-glucose dehydrogenase coupled). Format: biochemical, E. coli. On the procedure: This was a two-step assay. In the first step, GalT catalyzed reactions were performed at room temperature (24° C.) for 15 min in a final volume of 250 μl HEPES buffer (100 mM, pH 7.4) containing 1.6 mM Gal-1-P, 2.8 mM UDP-glucose, and 100 μl of enzyme solution. A blank was performed with water replacing Gal-1-P. The reaction was stopped by adding cold NaCl solution (0.5 ml, 0.15 M) and immediately transferring the tube to a boiling water bath for 5 min to terminate the reaction. The contents of the tubes were cooled to room temperature and vortexed vigorously to break up the coagulum. After centrifugation at 1400×g for 15 min, the clear supernatant (0.2 ml) was subjected to the UDP-glucose assay in a cuvette with a total volume of 1 ml containing 0.03 M Tris-acetate buffer, pH 8.7, 1.36 mM NAD, 0.2 ml sample (supernatant from the previous procedure) and 3.2 mU UDP-glucose dehydrogenase. The OD change at 340 nm was monitored by a UV spectrophotometer (HP 8453 Spectrophotometer, Hewlett-Packard Corn.).

Where [3] appears, read: 25 ml lysate per 1 L cell culture.
Where [4] appears, read: purified His-tagged enzyme, 1 U = 1 μmole product per minute at 24° C.

Read-outs that look alike come from different tables or passages of the source.

spHAS, sequence (P0C0H0 whole entry): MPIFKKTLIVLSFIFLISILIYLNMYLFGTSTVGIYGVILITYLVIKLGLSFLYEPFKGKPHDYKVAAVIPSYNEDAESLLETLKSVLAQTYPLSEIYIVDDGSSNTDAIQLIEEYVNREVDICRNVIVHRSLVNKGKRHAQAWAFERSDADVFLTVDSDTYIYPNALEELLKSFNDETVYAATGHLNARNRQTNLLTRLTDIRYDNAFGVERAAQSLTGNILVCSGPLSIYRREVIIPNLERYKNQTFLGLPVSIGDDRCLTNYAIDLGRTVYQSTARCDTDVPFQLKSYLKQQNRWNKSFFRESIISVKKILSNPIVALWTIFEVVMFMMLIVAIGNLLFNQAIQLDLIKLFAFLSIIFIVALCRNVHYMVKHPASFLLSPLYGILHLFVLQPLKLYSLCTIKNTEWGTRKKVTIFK
GalU, sequence (P0AEP3 whole entry): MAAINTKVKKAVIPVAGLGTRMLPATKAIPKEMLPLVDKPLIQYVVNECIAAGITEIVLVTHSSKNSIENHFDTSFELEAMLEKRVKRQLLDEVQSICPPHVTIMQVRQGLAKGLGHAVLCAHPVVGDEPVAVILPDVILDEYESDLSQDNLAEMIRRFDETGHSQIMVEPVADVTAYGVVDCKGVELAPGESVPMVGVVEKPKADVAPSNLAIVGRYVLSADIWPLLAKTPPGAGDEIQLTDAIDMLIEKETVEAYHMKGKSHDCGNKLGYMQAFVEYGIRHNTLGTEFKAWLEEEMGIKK
T1 sequence (P13266 whole entry): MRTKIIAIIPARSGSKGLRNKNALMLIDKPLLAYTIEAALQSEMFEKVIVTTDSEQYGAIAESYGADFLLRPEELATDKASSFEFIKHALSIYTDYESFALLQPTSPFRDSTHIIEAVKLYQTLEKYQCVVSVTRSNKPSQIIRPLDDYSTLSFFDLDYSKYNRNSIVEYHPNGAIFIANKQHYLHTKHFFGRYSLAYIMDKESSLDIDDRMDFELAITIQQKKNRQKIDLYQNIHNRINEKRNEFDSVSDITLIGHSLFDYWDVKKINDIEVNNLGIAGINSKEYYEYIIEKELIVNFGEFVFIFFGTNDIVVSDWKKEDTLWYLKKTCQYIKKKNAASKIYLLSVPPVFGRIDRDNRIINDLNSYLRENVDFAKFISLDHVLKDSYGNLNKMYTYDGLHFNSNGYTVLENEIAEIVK

For `Nc1ccn([C@@H]2O[C@H](COP(=O)(O)OP(=O)(O)OP(=O)(O)O)[C@@H](O)[C@H]2O)c(=O)n1` [CTP, Cytosine 5′-triphosphate], the Km (usually the substrate concentration at which the rate is half of its maximum) at CMP-NeuNAc synthetase is 310 µM. For `O=C(O)[C@H]1O[C@H](OP(=O)(O)OP(=O)(O)OC[C@H]2O[C@@H](n3ccc(=O)[nH]c3=O)[C@H](O)[C@@H]2O)[C@H](O)[C@@H](O)[C@@H]1O` [UDP-GlcA, uridine 5′-diphosphoglucuronic acid], the Km on spHAS was 40 ± 4 µM.

Take `CC(=O)N[C@H]1[C@@H](OP(=O)(O)OP(=O)(O)OC[C@H]2O[C@@H](n3ccc(=O)[nH]c3=O)[C@H](O)[C@@H]2O)O[C@H](CO)[C@@H](O)[C@@H]1O` [UDP-GlcNAc, uridine 5′-diphospho-N-acetylglucosamine]: the Michaelis constant (Km) at spHAS was 149 ± 3 µM. As for `[Mg+2]` [Mg^2+], the “effect on enzyme activity” value with Sucrose synthase II (sucrose-cleavage direction) is “little effect”. Consider `Nc1ncnc2c1ncn2[C@@H]1O[C@H](COP(=O)(O)OP(=O)(O)OP(=O)(O)O)[C@@H](O)[C@H]1O` [ATP, adenosine 5′-triphosphate], for which the “effect on enzyme activity” value in the series with Sucrose synthase II (both directions, in the presence of uridine substrate (UDP-Glc or UDP)) was “strong inhibition”. As to `CN1CC[C@]23c4c5ccc(O)c4O[C@H]2[C@@H](O[C@@H]2O[C@H](C(=O)O)[C@@H](O)[C@H](O)[C@H]2O)C=C[C@H]3[C@H]1C5` [morphine-6-O-glucuronide], the “activity relative to morphine” value in series [1] is 50 times.

For the molecule `CC(=O)N[C@H]1C(OP(=O)(O)O)O[C@H](CO)[C@H](O)[C@@H]1O` (stereo partly shown) [GalNAc-1-P, N-acetylgalactosamine-1-phosphate], the Km in series [2] was 290 µM. Regarding `CC(=O)NC1C(OP(=O)(O)O)OC(CO)C(O)C1O` (stereo not shown) [GlcNAc-1-P], the Michaelis-Menten constant (Km) in series [2] was 1100 µM. Regarding `[Mn+2]` [Mn^2+], the “effect on enzyme activity” value with Sucrose synthase II (sucrose-cleavage direction) is “strongly inhibited”.

B1: GalU: glucose-1-phosphate uridylyltransferase, E. coli, N-terminal six-histidine tag (protein, UniProt P0AEP3 2-302, looked up)
UTP--glucose-1-phosphate …: AAINTKVKKAVIPVAGLGTRMLPATKAIPKEMLPLVDKPLIQYVVNECIAAGITEIVLVTHSSKNSIENHFDTSFELEAMLEKRVKRQLLDEVQSICPPHVTIMQVRQGLAKGLGHAVLCAHPVVGDEPVAVILPDVILDEYESDLSQDNLAEMIRRFDETGHSQIMVEPVADVTAYGVVDCKGVELAPGESVPMVGVVEKPKADVAPSNLAIVGRYVLSADIWPLLAKTPPGAGDEIQLTDAIDMLIEKETVEAYHMKGKSHDCGNKLGYMQAFVEYGIRHNTLGTEFKAWLEEEMGIKK
modifications: N-terminal His6 tag
notes: glucose-1-phosphate uridylyltransferase, E. coli, N-terminal six-histidine tag
As for B1, in the series with GalU (setting [3]), the “activity of enzyme in the cell lysate” value came to 100 U/L. For the same molecule, in the series with GalU (setting [4]), the specific activity is 10 U/mg.

B2: GalT: galactose-1-phosphate uridylyltransferase, E. coli, N-terminal six-histidine tag (protein, UniProt P09148 1-348, looked up)
Galactose-1-phosphate …: MTQFNPVDHPHRRYNPLTGQWILVSPHRAKRPWQGAQETPAKQVLPAHDPDCFLCAGNVRVTGDKNPDYTGTYVFTNDFAALMSDTPDAPESHDPLMRCQSARGTSRVICFSPDHSKTLPELSVAALTEIVKTWQEQTAELGKTYPWVQVFENKGAAMGCSNPHPHGQIWANSFLPNEAEREDRLQKEYFAEQKSPMLVDYVQRELADGSRTVVETEHWLAVVPYWAAWPFETLLLPKAHVLRITDLTDAQRSDLALALKKLTSRYDNLFQCSFPYSMGWHGAPFNGEENQHWQLHAHFYPPLLRSATVRKFMVGYEMLAETQRDLTAEQAAERLRAVSDIHFRESGV
modifications: N-terminal His6 tag
notes: galactose-1-phosphate uridylyltransferase, E. coli, N-terminal six-histidine tag
As to B2, the “activity of enzyme in the cell lysate” value with GalT (setting [3]) amounted to 100 U/L. Also, the specific activity in the series on GalT (setting [4]) came to 5 U/mg.

Values taken from patent US20020150968A1, “Glycoconjugate and sugar nucleotide synthesis using solid supports” (priority 2001, published 2002).
